Source: US12486259B2, “FXR agonist having pyrazine structure, and preparation method and use” (JIANGSU TASLY DIYI PHARMACEUTICAL CO., LTD., priority 2020, dated 2025)

What was measured:
[1] = tested on: human colon adenocarcinoma cell line Caco-2 monolayer model; assay: in vitro
Procedure: (§1) The bi-directional transport of target compounds from apical side (AP) to basolateral side (BL) and from BL side to AP side is studied by using human colon adenocarcinoma cell line Caco-2 monolayer model. The transport parameters, apparent permeability coefficient (Papp) and efflux ratio are calculated by quantitative analysis with high performance liquid chromatography (HPLC).

[2] = in vitro; settings: human; for efflux ratio: Caco-2; for Papp A→B: Caco-2, Papp A-B; for Papp B→A: Caco-2, Papp B-A
Procedure: as §1

[3] = molecular target: T1, FXR (Homo sapiens, UniProt Q96RI1); assay: Intracellular FXR-TR-FRET experiment (pBIND-FXR / pG5Luc dual luciferase); type: cell-based; settings: cellular level, 18 hours with compound
T1 construct: expressed in transfected cells
T1 sequence (Q96RI1 1-486): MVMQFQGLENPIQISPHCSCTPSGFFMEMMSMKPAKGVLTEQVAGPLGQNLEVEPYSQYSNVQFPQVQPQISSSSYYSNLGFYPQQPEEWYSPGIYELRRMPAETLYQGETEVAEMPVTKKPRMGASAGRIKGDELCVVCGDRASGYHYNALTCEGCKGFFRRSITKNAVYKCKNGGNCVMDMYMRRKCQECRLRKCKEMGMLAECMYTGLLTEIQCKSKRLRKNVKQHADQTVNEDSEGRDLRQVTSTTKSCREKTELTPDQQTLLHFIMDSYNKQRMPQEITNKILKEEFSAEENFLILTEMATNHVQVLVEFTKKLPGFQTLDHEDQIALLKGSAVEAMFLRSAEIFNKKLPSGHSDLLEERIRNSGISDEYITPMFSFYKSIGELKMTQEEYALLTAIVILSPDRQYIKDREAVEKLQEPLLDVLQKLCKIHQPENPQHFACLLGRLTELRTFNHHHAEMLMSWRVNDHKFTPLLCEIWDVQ
Procedure: • 1. Cell culture: a, trypsinize dishes and seed cells are taken with appropriate density in 10 ml of complete […] at 37° C. b. Cells are incubated for 24 hours in 5% CO2 and humidified. • 2. Cell inoculation and transfection: FuGENE HD transfection reagent is used as a transfection reagent. • a. The transfection mixture is prepared according to the following procedure:
• b. The tube is tapped vigorously to mix the contents. The mixture is incubated at room temperature for 15 minutes. • c. Discs are trypsinized and cell density is determined. • d. The cytolymph is diluted to the desired volume at a density of 500,000 cells/ml (100 ul/well for 96-well plate). • e. The required volume of previously prepared transfection mixture is added to both cytolymph, and then 100 ul/well of cytolymph is dispensed onto the assay plate. • f. The assay plate is incubated under humidified conditions at 37° C., 5% CO2 for 24 hours. • 3. Compound preparation: • a. Compound stocks are prepared with a FXR working concentration of 10 mM and then diluted 3-fold in 100% DMSO. • b. 10 ul compound is added to 90 ul complete medium. • c. 5 ul compound solution is added to each well. • d. The plate is incubated at 37° C., 5% CO2 and humidified for 18 hours. • 4. Dual luciferase assay: the firefly and Renilla luciferase signals are analyzed by Dual Luciferase Reporter Assay System from Promega. Envision is used as a photometer. • 5. Result calculation: data values are normalized by dividing the firefly signal by the Renilla signal. “F/R” means “firefly/Renilla”. This normalization eliminates differences in different cell numbers and transfection efficiencies in each well. The % Activation value is calculated. The % Activation value is calculated by the following formula.
X is the “F/R” value for each concentration point. The minimum value is the average “F/R” value for the no compound control. The maximum value is the average “F/R” value of the reference compound control. • 6.

[4] = molecular target: T2, GST-labeled recombinant human FXR protein (Homo sapiens, UniProt Q96RI1); assay: Agonistic activity on FXR receptor (GST-FXR / SRC-1 bead assay, protein level); type: biochemical; settings: 0.4 nM FXR, 30 nM SRC-1, protein level
T2 construct: purchased Invitroren (so in the source)
T2 sequence (Q96RI1 262-486 limits assumed): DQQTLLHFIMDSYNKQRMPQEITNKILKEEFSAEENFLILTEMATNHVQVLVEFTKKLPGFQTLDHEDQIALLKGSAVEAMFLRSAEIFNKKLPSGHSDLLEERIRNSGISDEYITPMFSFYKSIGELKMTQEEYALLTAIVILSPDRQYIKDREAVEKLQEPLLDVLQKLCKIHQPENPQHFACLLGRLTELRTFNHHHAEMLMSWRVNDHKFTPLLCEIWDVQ
T2 sequence (Q15788 676-700 partner limits assumed): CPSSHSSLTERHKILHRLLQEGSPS
Procedure: Experimental procedures: FXR (GST-labeled recombinant human FXR protein, manufacturer: Invitroren, Item number: PV4835) and SRC-1 (steroid receptor co-activator-1) are thawed on ice. Three solutions of ABC are prepared by a buffer solution, solution A, 0.4 n M FXR and 30 nM SRC-1; solution B, 10 ug/ml Acceptor Beads; solution C, 10 ug/ml Donor Beads. Solution A is added to the plate at 15 uL per well. It is incubated at room temperature for 1 hour. Solution B is added to the plate at 7.5 uL per well. It is incubated at room temperature for 1 hour. Solution C is added to the plate at 7.5 uL per well. It is incubated at room temperature for 1 hour. It is read from the microplate reader Envision. The data are curve fitted by using Prism 5.0 to calculate the EC50.

[5] = literature; cited from earlier work
[6] = Caco-2, Recovery rate A-B, Average
[7] = Caco-2, Recovery rate A-B, Sample-01
[8] = Caco-2, Recovery rate A-B, Sample-02
[9] = Caco-2 cell line (21 days), Table 5

| SMILES | membrane permeation in Caco-2 (in words) ([1]; Caco-2) | efflux ratio [2] | Papp A→B [2] [×10⁻⁶ cm/s] | Papp A→B ([2]; Average) [×10⁻⁶ cm/s] | Papp A→B ([2]; Sample-01) [×10⁻⁶ cm/s] | Papp A→B ([2]; Sample-02) [×10⁻⁶ cm/s] | Papp B→A [2] [×10⁻⁶ cm/s] | recovery [2, 6] [%] | recovery [2, 7] [%] | recovery [2, 8] [%] | EC50 [3] [nM] | EC50 [4] [nM] | further results |
| --- | --- | --- | --- | --- | --- | --- | --- | --- | --- | --- | --- | --- | --- |
| O=C(O)c1cccc(C2CC(O)(c3ccc(OCc4c(-c5c(Cl)cccc5Cl)noc4C4CC4)cc3Cl)C2)c1 (centres unmarked) [Compound M3, reference compound] | poor permeation | > 76.8 | < 0.15 | < 0.15 | < 0.16 | < 0.14 | 11.6 | < 21.8 | < 27.2 | < 16.4 | 1490 | 1090 | Papp A-B, Average ([1]; human, Caco-2): <0.15 10−6 cm/s; Papp B→A ([2]; Average): 11.6 ×10⁻⁶ cm/s; Papp B→A ([2]; Sample-01): 13.3 ×10⁻⁶ cm/s; Papp B→A ([2]; Sample-02): 9.96 ×10⁻⁶ cm/s; recovery ([2]; Caco-2, Recovery rate B-A, Average): 36%; recovery ([2]; Caco-2, Recovery rate B-A, Sample-01): 36.3%; recovery ([2]; Caco-2, Recovery rate B-A, Sample-02): 35.6% |
| CC(C)c1onc(-c2c(Cl)cccc2Cl)c1COc1ccc(/C=C/c2cccc(C(=O)O)c2)c(Cl)c1 [GW4064] | – | – | – | – | – | – | – | – | – | – | – | – | oral availability [5]: 10%; t½ [5]: 3.5 h |
| Cc1cc(C(=O)O)cc(C2CC(O)(c3cnc(OCc4c(-c5c(Cl)cccc5Cl)noc4C4CC4)cn3)C2)c1 (centres unmarked) [TM-08, 3-(3-(5-((5-cyclopropyl-3-(2,6-dichlorophenyl)isoxazol-4-yl)methoxy)pyrazine-2-yl)-3-hydroxycyclobutyl)-5-methyl benzoic acid] | poor effect | 16.9 | 0.58 | 0.97 | 1.01 | 0.94 | 9.89 | 99 | 99.6 | 98.5 | 1510 | 240 | – |
| C[C@H]1O[C@@H](O[C@H]2[C@@H](O)C[C@H](O[C@H]3[C@@H](O)C[C@H](O[C@H]4CC[C@@]5(C)[C@H](CC[C@@H]6[C@@H]5C[C@@H](O)[C@]5(C)[C@@H](C7=CC(=O)OC7)CC[C@]65O)C4)O[C@@H]3C)O[C@@H]2C)C[C@H](O)[C@@H]1O [Digoxin, digoxin, reference compound] | – | > 263 | – | – | – | – | – | – | – | – | – | – | Papp A-B, Average ([1]; Caco-2, A-B, Average (Table 3)): <0.04 10−6 cm/s; Efflux rate = Papp B-A/Papp A-B ([1]; Caco-2 cell line (21 days)): > 262.93; Papp A→B ([2]; Average, Caco-2, A-B, Average (Table 3)): < 0.04 ×10⁻⁶ cm/s; Papp A→B [2, 9]: < 0.04 ×10⁻⁶ cm/s; Papp A→B ([2]; Sample-01, Caco-2, A-B, Sample-01): < 0.05 ×10⁻⁶ cm/s; Papp A→B ([2]; Sample-02, Caco-2, A-B, Sample-02): < 0.04 ×10⁻⁶ cm/s; Papp B→A ([2]; Average, Caco-2, B-A, Average (Table 3)): 11.6 ×10⁻⁶ cm/s; Papp B→A [2, 9]: 11.6 ×10⁻⁶ cm/s; Papp B→A ([2]; Sample-01, Caco-2, B-A, Sample-01): 11.7 ×10⁻⁶ cm/s; Papp B→A ([2]; Sample-02, Caco-2, B-A, Sample-02): 11.5 ×10⁻⁶ cm/s; recovery ([2]; Caco-2, Recovery rate A-B, Average, Caco-2, A-B): < 87%; recovery ([2]; Caco-2, Recovery rate A-B, Sample-01, Caco-2, A-B, Sample-01): < 85.2%; recovery ([2]; Caco-2, Recovery rate A-B, Sample-02, Caco-2, A-B, Sample-02): < 88.7%; recovery ([2]; Caco-2, Recovery rate B-A, Average, Caco-2, B-A): 94.6%; recovery ([2]; Caco-2, Recovery rate B-A, Sample-01, Caco-2, B-A, Sample-01): 93.7%; recovery ([2]; Caco-2, Recovery rate B-A, Sample-02, Caco-2, B-A, Sample-02): 95.4% |
